One data set deals with Rattus norvegicus. Kind of data set: Toxicity in Wistar rat at 3 mg/kg. It counts as organism-based. The arrangement: dose 3 mg/kg. The following applies: in vivo.
The test system of another data set is Mus musculus. Description: Toxicity in mouse at 3 mg/kg, ip. It counts as organism-based. More on the design: dose 3 mg/kg, route intraperitoneal. The following applies: in vivo.

The structures appear in SMILES notation.

For the compound `C=C1[C@@H]2CC[C@H]3[C@]4(C)C[C@H](O[C@@H]5O[C@H](CO)[C@@H](O)[C@H](O)[C@H]5OC(=O)CC(C)CC)CC(C(=O)O)(C(=O)O)[C@H]4CC[C@]3(C2)[C@H]1O` (some centres undefined), the Activity result with Rattus norvegicus and in the data set with Mus musculus was “Toxic” in each case.
As to `C=C1[C@@H]2CC[C@H]3[C@]4(C)C[C@H](O[C@@H]5O[C@H](CO)[C@@H](O)[C@H](O)[C@H]5OC(=O)CC(C)C)CC(C(=O)O)(C(=O)O)[C@H]4CC[C@]3(C2)[C@H]1O`, the Activity result with Rattus norvegicus and with Mus musculus was “Toxic” in each case.

The record behind these values is ChEMBL document CHEMBL1150178, “Two toxic kaurene glycosides from the burrs of Xanthium pungens” (J Nat Prod, 1990).
